Test results published in US20080139564A1, “SUBSTITUTED PHENYL PROPYL AMINES AS HISTAMINE H3 RECEPTOR AND SEROTONIN TRANSPORTER MODULATORS” (priority 2006, published 2008).
Where two headings read alike, the source gives them in different places.

What was measured:
human H3 receptor [1] = target: T1, human H3 receptor (Homo sapiens, UniProt Q9Y5N1); experiment: H3 receptor binding (N-[3H]-α-methylhistamine displacement, SK-N-MC cell membranes); conditions: 0.8 nM N-[3H]-α-methylhistamine, 60 min at 25° C.
T1 construct: expressed in transfected cells
T1 sequence (Q9Y5N1 whole entry): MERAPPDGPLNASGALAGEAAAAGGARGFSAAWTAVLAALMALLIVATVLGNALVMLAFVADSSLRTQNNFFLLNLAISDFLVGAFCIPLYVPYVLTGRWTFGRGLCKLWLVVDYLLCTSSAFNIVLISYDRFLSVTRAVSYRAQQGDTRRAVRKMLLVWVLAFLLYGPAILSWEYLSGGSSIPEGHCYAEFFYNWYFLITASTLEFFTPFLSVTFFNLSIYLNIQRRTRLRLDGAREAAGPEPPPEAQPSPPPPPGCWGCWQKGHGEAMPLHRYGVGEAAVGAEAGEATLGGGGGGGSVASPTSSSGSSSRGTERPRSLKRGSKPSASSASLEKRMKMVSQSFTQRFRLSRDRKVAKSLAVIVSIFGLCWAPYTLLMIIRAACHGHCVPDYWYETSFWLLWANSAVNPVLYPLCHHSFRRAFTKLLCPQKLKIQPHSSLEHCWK
Procedure: Binding of compounds to the cloned human H3 receptor, stably expressed in SK-N-MC cells, was performed (Lovenberg, T. W. et al. J. Pharmacol. Exp. Ther. 2000, 293, 771-778). Briefly, cell pellets from SK-N-MC cells expressing the human H3 receptor were homogenized in 50 mM Tris-HCl/5 mM EDTA and re-centrifuged at 30,000 g for 30 min. Pellets were re-homogenized in 50 mM Tris/5 mM EDTA (pH 7.4). Membranes were incubated with 0.8 nM N—[^3H]-α-methylhistamine plus/minus test compounds for 60 min at 25° C. and harvested by rapid filtration over GF/C glass fiber filters (pretreated with 0.3% polyethylenimine) followed by four washes with ice-cold buffer. Nonspecific binding was defined in the presence of 10 μM histamine.

Rat SERT = target: T2, Rat SERT (Rattus norvegicus, UniProt P31652); experiment: Rat brain SERT binding ([3H]-Citalopram displacement, rat brain membranes); conditions: 0.6 nM [3H]-Citalopram, 60 min at 25° C.
T2 construct: A rat brain without cerebellum (Zivic Laboratories, Inc.—Pittsburgh, Pa.) was homogenized; tissue Zivic Laboratories, Inc; host or cells: rat brain without cerebellum
T2 sequence (P31652 whole entry): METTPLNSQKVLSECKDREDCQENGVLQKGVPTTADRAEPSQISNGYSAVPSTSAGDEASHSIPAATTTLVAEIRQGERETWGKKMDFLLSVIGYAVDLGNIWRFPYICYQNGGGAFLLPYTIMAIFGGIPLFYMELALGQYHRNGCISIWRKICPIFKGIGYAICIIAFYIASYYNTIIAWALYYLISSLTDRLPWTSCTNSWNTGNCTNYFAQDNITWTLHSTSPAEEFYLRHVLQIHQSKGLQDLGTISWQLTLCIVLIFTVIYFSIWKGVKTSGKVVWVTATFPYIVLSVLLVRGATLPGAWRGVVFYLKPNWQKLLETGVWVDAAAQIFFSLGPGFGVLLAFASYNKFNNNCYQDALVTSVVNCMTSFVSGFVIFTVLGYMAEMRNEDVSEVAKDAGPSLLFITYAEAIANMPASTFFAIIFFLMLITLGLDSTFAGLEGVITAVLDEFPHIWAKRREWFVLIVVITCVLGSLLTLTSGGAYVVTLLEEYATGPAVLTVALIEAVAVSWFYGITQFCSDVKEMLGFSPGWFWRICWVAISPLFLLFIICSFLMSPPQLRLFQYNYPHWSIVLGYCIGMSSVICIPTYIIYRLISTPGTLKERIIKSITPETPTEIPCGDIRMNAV
Procedure: A rat brain without cerebellum (Zivic Laboratories, Inc.—Pittsburgh, Pa.) was homogenized in a 52.6 mM Tris pH 8/126.4 mM NaCl/5.26 mM KCl mixture and centrifuged at 1,000 rpm for 5 min. The supernatant was removed and re-centrifuged at 15,000 rpm for 30 min. Pellets were re-homogenized in a 52.6 mM Tris pH8/126.4 mM NaCl/5.26 mM KCl mixture. Membranes were incubated with 0.6 nM [^3H]-Citalopram plus/minus test compounds for 60 min at 25° C. and harvested by rapid filtration over GF/C glass fiber filters (pretreated with 0.3% polyethylenimine) followed by four washes with ice-cold buffer. Nonspecific binding was defined in the presence of 100 μM fluoxetine.

human SERT = target: T3, human SERT (Homo sapiens, UniProt P31645); experiment: Human SERT binding (3H-citalopram displacement, HEK293 membranes); conditions: 3H-citalopram 3.1 nM, rt for 1 h
T3 construct: expressed in transfected cells; host or cells: HEK293
T3 sequence (P31645 whole entry): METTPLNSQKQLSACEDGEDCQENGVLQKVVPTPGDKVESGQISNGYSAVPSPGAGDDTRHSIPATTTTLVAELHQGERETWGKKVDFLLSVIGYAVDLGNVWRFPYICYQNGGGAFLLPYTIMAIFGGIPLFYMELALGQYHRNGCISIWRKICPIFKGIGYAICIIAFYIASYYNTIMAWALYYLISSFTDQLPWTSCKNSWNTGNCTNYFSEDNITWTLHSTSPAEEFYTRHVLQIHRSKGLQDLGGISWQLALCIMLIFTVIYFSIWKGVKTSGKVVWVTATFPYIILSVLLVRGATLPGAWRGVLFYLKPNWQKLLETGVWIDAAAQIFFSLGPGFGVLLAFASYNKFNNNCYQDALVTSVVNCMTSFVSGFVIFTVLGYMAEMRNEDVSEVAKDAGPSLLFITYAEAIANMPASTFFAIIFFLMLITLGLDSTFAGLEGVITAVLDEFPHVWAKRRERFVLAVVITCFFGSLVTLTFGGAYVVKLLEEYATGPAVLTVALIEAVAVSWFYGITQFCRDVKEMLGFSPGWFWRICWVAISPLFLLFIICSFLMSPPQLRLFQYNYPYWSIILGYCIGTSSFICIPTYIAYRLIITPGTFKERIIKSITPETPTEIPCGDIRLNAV
Procedure: Homogenized HEK293 (Human Embryonic Kidney) membranes expressing the human SERT were incubated with ^3H-citalopram (SERT) at rt for 1 h in 50 mM Tris, 120 mM NaCl, 5 mM KCl (pH 7.4). Nonspecific binding was determined in the presence of 10 μM fluoxetine for the SERT. The membranes were washed and the radioactivity was counted as above. Calculations for Ki at the SERT were based on a Kd value for ^3H-citalopram and a ligand concentration of 3.1 nM.

human H3 receptor [2] = target: T1, human H3 receptor; experiment: Cyclic AMP accumulation (β-galactosidase reporter in SK-N-MC cells); format: cell-based
Procedure: Sublines of SK-N-MC cells were created that expressed a reporter construct and the human H3 receptor. The reporter gene (β-galactosidase) is under the control of multiple cyclic AMP responsive elements. In 96-well plates, histamine was added directly to the cell media followed 5 min later by an addition of forskolin (5 μM final concentration). When appropriate, antagonists were added 10 min prior to agonist addition. After a 6-h incubation at 37° C., the media was aspirated and the cells washed with 200 μL of phosphate-buffered saline followed by a second aspiration. Cells were lysed with 25 μL 0.1× assay buffer (10 mM Na-phosphate, pH 8, 0.2 mM MgSO4, 0.01 mM MnCl2) and incubated at rt for 10 min. Cells were then incubated for 10 min with 100 μL of 1× assay buffer containing 0.5% Triton and 40 mM β-mercaptoethanol. Color was developed using 25 μL of 1 mg/mL substrate solution (chlorophenolred β-D galactopyranoside; Roche Molecular Biochemicals, Indianapolis, Ind.). Color was quantitated on a microplate reader at absorbance 570 nm. The pA2 values were calculated by Schild regression analysis of the pEC50 values.

[3] = Schild regression analysis of the pEC50 values, histamine agonist, forskolin 5 μM, SK-N-MC reporter cells, read-out: pA2 (converted)

| Structure (SMILES) | Ki (human H3 receptor [1]) | Ki (Rat SERT) | Ki (human SERT) | Kb (human H3 receptor [2]) | Kb (human H3 receptor [2]; [3]) | Kb (human H3 receptor [2]; read-out: pA2 (converted)) |
| --- | --- | --- | --- | --- | --- | --- |
| CN(C)CCC(Oc1ccccc1)c1ccc(OCCCN2CCCCC2)cc1 (stereo not drawn) [Example 1, Dimethyl-[3-phenoxy-3-[4-(3-piperidin-1-yl-propoxy)-phenyl]-propyl]-amine] | 0.7 nM | 1 nM | 26 nM | 0.468 nM | – | – |
| CN(C)CCC(Oc1ccc(C(F)(F)F)cc1)c1ccc(OCCCN2CCCCC2)cc1 (stereo not drawn) [Example 2, Dimethyl-[3-[4-(3-piperidin-1-yl-propoxy)-phenyl]-3-(4-trifluoromethyl-phenoxy)-propyl]-amine] | 2.5 nM | 17 nM | 14 nM | – | 2.95 nM | – |
| COc1cccc(OC(CCN(C)C)c2ccc(OCCCN3CCCCC3)cc2)c1 (stereo not drawn) [Example 13, {3-(3-Methoxy-phenoxy)-3-[4-(3-piperidin-1-yl-propoxy)-phenyl]-propyl}-dimethyl-amine] | 0.7 nM | 3 nM | 11 nM | – | – | 0.617 nM |
| CN(C)CCC(Oc1cccc(Br)c1)c1ccc(OCCCN2CCCCC2)cc1 (stereo not drawn) [Example 15, {3-(3-Bromo-phenoxy)-3-[4-(3-piperidin-1-yl-propoxy)-phenyl]-propyl}-dimethyl-amine] | 1 nM | 2 nM | 4 nM | – | 1.58 nM | – |
| CN(C)CCC(Oc1cccnc1)c1ccc(OCCCN2CCCCC2)cc1 (stereo not drawn) [Example 18, Dimethyl-[3-[4-(3-piperidin-1-yl-propoxy)-phenyl]-3-(pyridin-3-yloxy)-propyl]-amine] | 0.3 nM | 9 nM | 91 nM | – | – | 0.0631 nM |
| CN(C)CCC(Oc1ccc(C(F)(F)F)cc1)c1ccc(C#CCCN2CCCCC2)cc1 (stereo not drawn) [Example 20, Dimethyl-[3-[4-(4-piperidin-1-yl-but-1-ynyl)-phenyl]-3-(4-trifluoromethyl-phenoxy)-propyl]-amine] | 9 nM | 58 nM | 61 nM | – | 5.62 nM | – |
| CN(C)CCC(Oc1ccccc1)c1ccc(C#CCCN2CCCCC2)cc1 (stereo not drawn) [Example 21, Dimethyl-{3-phenoxy-3-[4-(4-piperidin-1-yl-but-1-ynyl)-phenyl]-propyl}-amine] | 1.2 nM | 5 nM | 29 nM | – | – | 0.661 nM |
| CN(C)CCC(Oc1ccccc1)c1ccc(CCCCN2CCCCC2)cc1 (stereo not drawn) [Example 32, Dimethyl-{3-phenoxy-3-[4-(4-piperidin-1-yl-butyl)-phenyl]-propyl}-amine] | 6 nM | 7 nM | 10 nM | – | – | 4.79 nM |
| CC(C)N1CCC(Oc2ccc(C(CCN(C)C)Oc3ccccc3)cc2)CC1 (stereo not drawn) [Example 36, {3-[4-(1-Isopropyl-piperidin-4-yloxy)-phenyl]-3-phenoxy-propyl}-dimethyl-amine] | 0.8 nM | 36 nM | 169 nM | – | – | 6.92 nM |
| CC(C)N1CCN(C(=O)c2ccc(C(CCN(C)C)Oc3ccccc3)cc2)CC1 (stereo not drawn) [Example 38, [4-(3-Dimethylamino-1-phenoxy-propyl)-phenyl]-(4-isopropylpiperazin-1-yl)-methanone] | 0.7 nM | 161 nM | 245 nM | – | – | 0.214 nM |
| CC(C)N1CCN(C(=O)c2ccc(C(CCN(C)C)Oc3ccc(Cl)c(Cl)c3)cc2)CC1 (stereo not drawn) [Example 40, {4-[1-(3,4-Dichloro-phenoxy)-3-dimethylamino-propyl]-phenyl}-(4-isopropyl-piperazin-1-yl)-methanone] | 2 nM | 18 nM | 7 nM | – | – | 2.19 nM |
| CN(C)CCC(Oc1ccc(OCCCN2CCCCC2)cc1)c1ccccc1 (stereo not drawn) [Example 41, Dimethyl-{3-phenyl-3-[4-(3-piperidin-1-yl-propoxy)-phenoxy]-propyl}-amine] | 1 nM | 18 nM | 282 nM | – | – | 0.759 nM |
| CN(C)CCC(Oc1ccc(OCCCN2CCCCC2)cc1)c1ccc(C(F)(F)F)cc1 (stereo not drawn) [Example 42, Dimethyl-[3-[4-(3-piperidin-1-yl-propoxy)-phenoxy]-3-(4-trifluoromethyl-phenyl)-propyl]-amine] | 2 nM | 9 nM | 180 nM | – | – | 3.89 nM |
| CN(C)CCC(Oc1ccc(OCCCN2CCCCC2)cc1)c1ccc(Cl)cc1 (stereo not drawn) [Example 43, {3-(4-Chloro-phenyl)-3-[4-(3-piperidin-1-yl-propoxy)-phenoxy]-propyl}-dimethyl-amine] | 1 nM | 23 nM | 163 nM | – | – | 1.7 nM |
| CC(C)N1CCC(Oc2ccc(OC(CCN(C)C)c3ccccc3)cc2)CC1 (stereo not drawn) [Example 44, {3-[4-(1-Isopropyl-piperidin-4-yloxy)-phenoxy]-3-phenyl-propyl}-dimethyl-amine] | 0.9 nM | 18 nM | 90 nM | – | – | 0.0977 nM |
| CC(C)N1CCN(Cc2ccc(C(CCN(C)C)Oc3ccc(Cl)c(Cl)c3)cc2)CC1 (stereo not drawn) [Example 47, {3-(3,4-Dichloro-phenoxy)-3-[4-(4-isopropyl-piperazin-1-ylmethyl)phenyl]-propyl}-dimethyl-amine] | 5 nM | 6 nM | 6 nM | – | – | 11.5 nM |
| CC(C)N1CCN(Cc2ccc(C(CCN(C)C)Oc3ccccc3)cc2)CC1 (stereo not drawn) [Example 56, {3-[4-(4-Isopropyl-piperazin-1-ylmethyl)-phenyl]-3-phenoxy-propyl}-dimethyl-amine] | 1 nM | 14 nM | 133 nM | – | – | 0.977 nM |
| CN(C)CCC(Oc1ccc(C#CCCN2CCCCC2)cc1)c1ccccc1 (stereo not drawn) [Example 57, Dimethyl-{3-phenyl-3-[4-(4-piperidin-1-yl-but-1-ynyl)-phenoxy]-propyl}-amine] | 2 nM | 22 nM | 172 nM | – | – | 2.19 nM |
| CN(C)CCC(Cc1ccccc1)c1ccc(OCCCN2CCCCC2)cc1 (stereo not drawn) [Example 65, Dimethyl-{4-phenyl-3-[4-(3-piperidin-1-yl-propoxy)-phenyl]-butyl}-amine] | 0.8 nM | 1 nM | 14 nM | – | – | 0.251 nM |
| CN(C)CCC(Nc1ccccc1)c1ccc(OCCCN2CCCCC2)cc1 (stereo not drawn) [Example 66, N^3,N^3-Dimethyl-N^1-phenyl-1-[4-(3-piperidin-1-yl-propoxy)-phenyl]-propane-1,3-diamine] | 3 nM | 15 nM | 151 nM | – | – | 3.98 nM |
| CN(C)CCC(Sc1ccccc1)c1ccc(OCCCN2CCCCC2)cc1 (stereo not drawn) [Example 67, Dimethyl-{3-phenylsulfanyl-3-[4-(3-piperidin-1-yl-propoxy)phenyl]-propyl}-amine] | 0.6 nM | 4 nM | 53 nM | – | – | 0.631 nM |
| NCCC(Oc1ccc(C(F)(F)F)cc1)c1ccc(OCCCN2CCCCC2)cc1 (stereo not drawn) [Example 69, 3-[4-(3-Piperidin-1-yl-propoxy)-phenyl]-3-(4-trifluoromethylphenoxy)-propylamine] | 8 nM | 5 nM | 1 nM | – | – | 7.94 nM |
| CNCCC(Oc1ccc(C(F)(F)F)cc1)c1ccc(OCCCN2CCCCC2)cc1 (stereo not drawn) [Example 70, Methyl-[3-[4-(3-piperidin-1-yl-propoxy)-phenyl]-3-(4-trifluoromethyl-phenoxy)-propyl]-amine] | 1 nM | 3 nM | 2 nM | 3.98 nM | – | – |
| CNCCC(Oc1ccc(Cl)c(Cl)c1)c1ccc(OCCCN2CCCCC2)cc1 (stereo not drawn) [Example 71, {3-(3,4-Dichloro-phenoxy)-3-[4-(3-piperidin-1-yl-propoxy)-phenyl]-propyl}-methyl-amine] | 2 nM | 3 nM | 0.8 nM | – | – | 10.5 nM |
